# Values of other authors as cited in patent US20210349074A1, “METHOD OF TESTING TEARS AS A BIOMARKER FOR CANNABINOIDS” (priority 2020, published 2021).
# Settings: during the first two hours after using cannabis
smiles,measurement,value
"CCCCCc1cc(O)c2c(c1)OC(C)(C)[C@@H]1CCC(C)=C[C@@H]21 [THC, Δ9-tetrahydrocannabinol]",average drop of participants' THC blood levels,5 ng/mL
